Read-outs that look alike come from different tables or passages of the source.
Tests used:
[1] = test system: MCF-7; assay: Growth inhibition of MCF-7 sensitive breast cancer cells (colony formation, crystal violet); assay type: cell-based, human; conditions: for IC50: Homo sapiens
Description: (§1) In vitro Activity. […] This cell suspension was dispensed in 200 μL aliquots (1000 cells/well) into the inside wells of 96-well tissue culture plates. Outside wells contained 200 μL of media. […] The medium was replaced with 90 μL of growth medium prior to addition of the drug. Doxaz was dissolved in DMSO at concentrations ranging from 50 μM to 1 mM. […] Serial dilutions (1:3 and 1:10) were made in sterile DMSO to yield seven solutions of decreasing drug concentration at 100× the respective working concentrations. […] Additionally, two lanes were treated with 10 μL of growth medium containing 10% sterile DMSO and one lane was treated with 90 μL of 1.5 M Tris HCl. […]
(§2) Cell growth inhibition experiments initially focused on MCF-7, MCF-7/Adr, SK-HEP-1, and Hep G2 cancer cells as well as rat cardiomyocytes as a measure of cardiotoxicity and Vero cells (green monkey kidney cells) as an additional measure of normal cell toxicity.
(§3) Activity of plasmin-activated prodrugs.
(§4) A more thorough characterization of the growth inhibition of a variety of cancer cells as well as rat cardiomyocytes by Formula IV (aFK-PABC-Doxaz) was evaluated in comparison with inhibition of growth by Doxaz, Dox and aFK-PABC-Dox. Cells were treated with drug for 3 h and colony growth was measured at 3 to 5 days when cells reached about 80% confluence. […] The breast cancer cell lines represent the multi-drug resistant (MDR) phenotype with MCF-7/Adr cells and a cell line that is transfected with the gene for urokinase plasminogen activator (uPA), the primary enzyme responsible for cleavage of plasminogen to plasmin. Rat cardiomyocytes served as a model for comparison of drug cardiotoxicity.

[2] = test system: MCF-7/Adr; assay: Growth inhibition of multidrug resistant MCF-7/Adr breast cancer cells (crystal violet); assay type: cell-based; conditions: for IC50: Homo sapiens, NCI/ADR-RES
Description: as §1, §2, §3, §4

[3] = test system: DU-145; assay: Growth inhibition of DU-145 prostate cancer cells; assay type: cell-based
Description: as §1
(§5) SHP-77 small cell lung cancer cells were also of interest because they express modest amounts of both enzymes. Inhibition of the growth of cardiomyocytes was used as a measure of cardiotoxicity, and inhibition of the growth of Vero cells, green monkey kidney cells, was again used as another measure of toxicity to normal cells.
A more thorough characterization of the growth inhibition of a variety of cancer cells as well as rat cardiomyocytes by Formula IV (aFK-PABC-Doxaz) was evaluated in comparison with inhibition of growth by Doxaz, Dox and aFK-PABC-Dox. […] […] The breast cancer cell lines represent the multi-drug resistant (MDR) phenotype with MCF-7/Adr cells and a cell line that is transfected with the gene for urokinase plasminogen activator (uPA), the primary enzyme responsible for cleavage of plasminogen to plasmin. Rat cardiomyocytes served as a model for comparison of drug cardiotoxicity.

[4] = test system: cancer cells; conditions: background statement; cited from earlier work
[5] = buffer; cited from earlier work
[6] = target: αvβ3 integrin (Homo sapiens, UniProt P05106+P06756); conditions: cited from earlier work
Sequence of αvβ3 integrin (P06756 31-889 limits assumed): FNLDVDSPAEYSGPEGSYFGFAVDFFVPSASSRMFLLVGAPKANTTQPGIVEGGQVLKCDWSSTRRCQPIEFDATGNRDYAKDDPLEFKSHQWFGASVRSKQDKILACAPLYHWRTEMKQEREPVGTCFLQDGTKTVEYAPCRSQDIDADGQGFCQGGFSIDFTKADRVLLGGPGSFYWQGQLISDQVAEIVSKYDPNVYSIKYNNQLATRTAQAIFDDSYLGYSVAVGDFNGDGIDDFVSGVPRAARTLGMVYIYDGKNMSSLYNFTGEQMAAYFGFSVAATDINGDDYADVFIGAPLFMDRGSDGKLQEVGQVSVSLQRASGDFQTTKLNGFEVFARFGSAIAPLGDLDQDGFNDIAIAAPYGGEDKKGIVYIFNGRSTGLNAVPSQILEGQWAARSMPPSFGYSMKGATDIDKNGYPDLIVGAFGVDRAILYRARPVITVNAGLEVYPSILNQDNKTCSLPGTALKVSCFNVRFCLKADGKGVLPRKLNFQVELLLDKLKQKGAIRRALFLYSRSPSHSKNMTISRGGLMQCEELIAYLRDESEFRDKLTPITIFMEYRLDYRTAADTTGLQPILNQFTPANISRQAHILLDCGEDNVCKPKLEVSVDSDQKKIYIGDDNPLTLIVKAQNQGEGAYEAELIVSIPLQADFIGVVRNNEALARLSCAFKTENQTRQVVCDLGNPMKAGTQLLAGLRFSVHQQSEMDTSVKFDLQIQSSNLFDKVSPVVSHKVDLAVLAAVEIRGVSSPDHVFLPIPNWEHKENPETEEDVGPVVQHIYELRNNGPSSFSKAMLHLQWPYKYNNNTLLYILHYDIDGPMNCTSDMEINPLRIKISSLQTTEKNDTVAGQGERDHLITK
Sequence of αvβ3 integrin (P06756 891-1048 partner limits assumed): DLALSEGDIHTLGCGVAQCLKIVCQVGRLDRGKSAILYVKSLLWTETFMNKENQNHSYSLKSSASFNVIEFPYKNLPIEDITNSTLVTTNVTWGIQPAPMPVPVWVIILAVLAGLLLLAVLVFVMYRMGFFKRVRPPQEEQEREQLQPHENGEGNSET
Sequence of αvβ3 integrin (P05106 27-788): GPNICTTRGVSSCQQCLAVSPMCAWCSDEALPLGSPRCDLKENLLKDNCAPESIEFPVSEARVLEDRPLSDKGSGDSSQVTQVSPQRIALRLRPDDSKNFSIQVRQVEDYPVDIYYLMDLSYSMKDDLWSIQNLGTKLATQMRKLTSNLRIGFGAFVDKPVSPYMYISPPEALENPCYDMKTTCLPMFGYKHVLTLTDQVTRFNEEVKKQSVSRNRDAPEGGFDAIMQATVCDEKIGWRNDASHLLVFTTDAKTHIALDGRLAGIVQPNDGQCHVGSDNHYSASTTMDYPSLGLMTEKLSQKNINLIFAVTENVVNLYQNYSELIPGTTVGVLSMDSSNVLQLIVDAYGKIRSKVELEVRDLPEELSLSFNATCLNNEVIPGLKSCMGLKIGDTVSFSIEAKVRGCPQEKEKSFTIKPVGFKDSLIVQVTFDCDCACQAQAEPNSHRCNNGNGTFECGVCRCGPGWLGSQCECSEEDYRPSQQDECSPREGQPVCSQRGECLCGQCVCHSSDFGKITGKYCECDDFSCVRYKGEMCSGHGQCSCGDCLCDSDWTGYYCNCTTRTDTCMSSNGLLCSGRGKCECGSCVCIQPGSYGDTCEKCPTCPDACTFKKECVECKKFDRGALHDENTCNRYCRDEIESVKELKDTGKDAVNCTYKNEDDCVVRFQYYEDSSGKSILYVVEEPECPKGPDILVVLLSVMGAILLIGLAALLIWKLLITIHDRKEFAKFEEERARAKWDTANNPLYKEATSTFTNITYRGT

[7] = test system: cancer cells; assay: Cancer cell growth inhibition, statements over several or unnamed cell lines; assay type: cell-based; conditions: read-out: Cancer cell growth inhibition IC50 in the presence of plasmin
Description: In vitro Activity. […] This cell suspension was dispensed in 200 μL aliquots (1000 cells/well) into the inside wells of 96-well tissue culture plates. Outside wells contained 200 μL of media. […] The medium was replaced with 90 μL of growth medium prior to addition of the drug. Doxaz was dissolved in DMSO at concentrations ranging from 50 μM to 1 mM. […] Serial dilutions (1:3 and 1:10) were made in sterile DMSO to yield seven solutions of decreasing drug concentration at 100× the respective working concentrations. […] Additionally, two lanes were treated with 10 μL of growth medium containing 10% sterile DMSO and one lane was treated with 90 μL of 1.5 M Tris HCl. The cells were incubated at 37° C. for 3 h, at which time the drug solutions were replaced with 200 μL of fresh growth medium.
as §4

[8] = target: human plasmin (Homo sapiens, UniProt P00747); assay: Plasmin activation of prodrug and release of Doxaz (HPLC); assay type: biochemical; conditions: 37° C.
Sequence of human plasmin (P00747 581-810 limits assumed): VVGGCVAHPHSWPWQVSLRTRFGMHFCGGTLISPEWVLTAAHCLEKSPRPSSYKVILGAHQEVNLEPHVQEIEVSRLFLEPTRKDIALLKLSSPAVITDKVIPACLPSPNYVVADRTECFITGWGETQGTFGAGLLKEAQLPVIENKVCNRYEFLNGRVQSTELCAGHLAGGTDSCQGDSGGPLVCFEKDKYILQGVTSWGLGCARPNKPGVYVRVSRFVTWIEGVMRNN
Sequence of human plasmin (P00747 97-580 partner limits assumed): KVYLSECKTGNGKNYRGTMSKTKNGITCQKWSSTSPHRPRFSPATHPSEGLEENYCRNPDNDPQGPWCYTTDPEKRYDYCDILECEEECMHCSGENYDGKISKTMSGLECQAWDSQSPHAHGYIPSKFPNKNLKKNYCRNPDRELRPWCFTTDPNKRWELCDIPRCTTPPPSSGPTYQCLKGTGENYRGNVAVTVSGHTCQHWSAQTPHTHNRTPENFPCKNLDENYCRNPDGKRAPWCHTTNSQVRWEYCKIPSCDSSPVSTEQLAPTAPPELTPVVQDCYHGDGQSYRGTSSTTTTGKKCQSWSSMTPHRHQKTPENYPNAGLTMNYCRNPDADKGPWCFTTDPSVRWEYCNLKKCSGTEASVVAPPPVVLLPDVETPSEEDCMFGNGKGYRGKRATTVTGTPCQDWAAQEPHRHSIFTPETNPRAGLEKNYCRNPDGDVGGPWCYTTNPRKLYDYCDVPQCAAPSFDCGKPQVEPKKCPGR
Description: Both Formulas IV and V were incubated with 15 μg/ml human plasmin and monitored by HPLC at 37° C. Just 4 min after the addition of plasmin, 20 percent of compound 10 was converted to Doxaz and roughly 50% of that Doxaz had hydrolyzed to Doxorubicin. Within 23 minutes, nearly all of the prodrug was converted to Doxaz and subsequently hydrolyzed to Doxorubicin.

[9] = Water solubility; assay type: physicochemical; conditions: as di-cation
[10] = test system: SK-HEP-1; assay: Growth inhibition of SK-HEP-1 liver cancer cells; assay type: cell-based, human; conditions: crystal violet
Text: (§6) Cell growth inhibition experiments initially focused on MCF-7, MCF-7/Adr, SK-HEP-1, and Hep G2 cancer cells as well as rat cardiomyocytes as a measure of cardiotoxicity and Vero cells (green monkey kidney cells) as an additional measure of normal cell toxicity. […]

[11] = test system: Hep G2; assay: Growth inhibition of Hep G2 liver cancer cells; assay type: cell-based, human; conditions: crystal violet
Text: as §6

[12] = test system: H9c2(2-1) rat cardiomyocytes; assay: Growth inhibition of rat cardiomyocytes as a measure of cardiotoxicity; assay type: cell-based; conditions: 24 h drug treatment; crystal violet
Description: Biological activity of simple Doxazolidine carbamates. Since the prodrug carbamates were designed to be activated by carboxylesterases CES1 (hCE1) and/or CES2 (hiCE), cell lines of interest were measured for expression of the respective mRNAs using reverse transcription (RT) followed by PCR (polymerase chain reaction). Cancer cell lines investigated included SHP-77 resistant small cell lung, DU-145 prostate, MCF-7 sensitive breast, MCF-7/Adr resistant breast, SK-HEP-1 liver, and Hep G2 liver cells. As a measure of possible cardiotoxicity, H9c2(2-1) rat cardiomyocytes were also investigated. Cardiotoxicity is relevant because the ultimate product of metabolism and subsequent hydrolysis of these carbamates is doxorubicin, which is cardiotoxic. […] Additionally, the rat cardiomyocytes, H9c2(2-1), also express more CES2 than CES1.
Cell growth inhibition experiments initially focused on MCF-7, MCF-7/Adr, SK-HEP-1, and Hep G2 cancer cells as well as rat cardiomyocytes as a measure of cardiotoxicity and Vero cells (green monkey kidney cells) as an additional measure of normal cell toxicity. The butyl and pentyl carbamates inhibited the growth of MCF-7, MCF-7/Adr, and SK-HEP-1 cell lines with a 24 h drug treatment period with some selectivity for cancer cells over cardiomyocytes relative to growth inhibition by Dox as shown in Table 2. […] The relative inactivity of the ethyl carbamate may indicate that a substantial lipophilic interaction is required at the active site of the carboxylesterases to hold the Doxaz substrate.
Biological activity of Doxazolidine carbamates with self-eliminating spacer. […] SHP-77 small cell lung cancer cells were also of interest because they express modest amounts of both enzymes. Inhibition of the growth of cardiomyocytes was used as a measure of cardiotoxicity, and inhibition of the growth of Vero cells, green monkey kidney cells, was again used as another measure of toxicity to normal cells. They also show more activity against the cancer cells that express higher levels of CES1. Of particular note is the higher activity against Hep G2 cells than against SK-HEP-1 cells. […] The low toxicity of pentyl PABC-Doxaz to cardiomyocytes relative to the toxicity of Dox is encouraging and consistent with the low level of expression of CES1 in cardiomyocytes.
A more thorough characterization of the growth inhibition of a variety of cancer cells as well as rat cardiomyocytes by Formula IV (aFK-PABC-Doxaz) was evaluated in comparison with inhibition of growth by Doxaz, Dox and aFK-PABC-Dox. Cells were treated with drug for 3 h and colony growth was measured at 3 to 5 days when cells reached about 80% confluence. The cancer cells included one prostate cancer cell line (DU-145), three related breast cancer cell lines (MCF-7, MCF-7/Adr, and MCF-7 uPA), and one pancreatic cancer cell line (Mia PaCa-2). The breast cancer cell lines represent the multi-drug resistant (MDR) phenotype with MCF-7/Adr cells and a cell line that is transfected with the gene for urokinase plasminogen activator (uPA), the primary enzyme responsible for cleavage of plasminogen to plasmin. Rat cardiomyocytes served as a model for comparison of drug cardiotoxicity. Growth inhibition was also measured with added plasmin. aFK-PABC-Doxaz inhibited the growth of most of the cancer cells 0.5 log or more better than did aFK-PABA-Dox. Although not as dramatic, this differential response paralleled the differential response between Doxaz and Dox which is approximately two logs except for the MDR expressing, MCF-7/Adr cells which show more than three logs differential response. […] Addition of 0.01 unit/mL of plasmin has no effect on the activity of Dox but increases the activity of both aFK-PABC-Doxaz and aFK-PABC-Dox, in some cases by more than a log. Addition of 0.01 unit/mL plasminogen increases the activity of aFK-PABC-Doxaz on average by 0.3 log. […]

[13] = test system: Vero cells; assay: Growth inhibition of Vero cells as a measure of normal cell toxicity (MTT); assay type: cell-based, green monkey
Text: as §2, §5

[14] = test system: SHP-77; assay: Growth inhibition of SHP-77 small cell lung cancer cells; assay type: cell-based; conditions: 24 h drug treatment; crystal violet
Text: as §5

[15] = Uptake of pentyl carbamate relative to Dox, flow cytometry, with and without fetal bovine serum; assay type: cell-based
Description: Uptake of the pentyl carbamate relative to uptake of Dox was measured by flow cytometry, monitoring fluorescence of the Dox fluorophore as a measure of drug in cells. The measurements were performed over a period of 3 h in the presence and absence of fetal bovine serum, and the results are shown in FIG. 4. […] Further, the presence of 10% fetal bovine serum decreased the uptake of doxorubicin and the pentyl carbamate by about 25%. The more rapid uptake of the pentyl carbamate in the presence and absence of serum probably reflects its increased hydrophobicity relative to that of doxorubicin which is a cation at physiological pH. Increased hydrophobicity may also be the explanation for the effect of serum on the uptake of the carbamate; namely, the carbamate binds to serum proteins reducing drug uptake.

[16] = Hydrolytic stability of Doxaz carbamate prodrugs in aqueous media; assay type: physicochemical; conditions: pH 7.4 buffer, no cells or growth media, 24 h, ambient temperature, HPLC
[17] = 24 h drug treatment, crystal violet

Compound: COc1cccc2c1C(=O)c1c(O)c3c(c(O)c1C2=O)C[C@@](O)(C(=O)CO)C[C@@H]3O[C@H]1C[C@H]2C(OCN3CN2CO[C@H]2[C@@H](C)O[C@@H](O[C@H]4C[C@](O)(C(=O)CO)Cc5c(O)c6c(c(O)c54)C(=O)c4c(OC)cccc4C6=O)C[C@@H]23)[C@H](C)O1 (some centres unmarked) [EpiF, Epidoxoform, reference compound]
- IC50 ([1]; MCF7, 3 h, read-out: IC50 MCF-7): 65 nM
- IC50 ([2]; 3 h, read-out: IC50 MCF-7/Adr): 70 nM
- IC50 ([3]; Homo sapiens, DU-145, 3 h, read-out: IC50 DU-145): 26 ± 5 nM
- Less active than DoxF in cancer cell growth inhibition [4]: 50 fold
- Half-life, stability in water with respect to loss of formaldehyde [5]: 2 h

Compound: Lys-Arg-Gly-Asp-phe (KRGD; C-terminal D-Phe; printed: Lys-Arg-Gly-Asp-) [KRGDf]
- Specificity for αvβ3 over αIIbβ3 platelet receptor [6]: 1000 fold

Compound: COc1cccc2c1C(=O)c1c(O)c3c(c(O)c1C2=O)C[C@@](O)(C(=O)CO)C[C@@H]3O[C@H]1C[C@H]2[C@@H](OCN2C(=O)OCc2ccc(NC(=O)OCc3ccc(NC(=O)[C@H](CCCCN)NC(=O)[C@H](Cc4ccccc4)NC(=O)[C@@H](C)N)cc3)cc2)[C@H](C)O1 [Formula V]
- IC50 ([1]; MCF7, 3 h, read-out: IC50 MCF-7 + plasmin): 9 nM
- IC50 ([1]; MCF7, read-out: IC50 MCF-7): 60 nM
- IC50 ([2]; 3 h, read-out: IC50 MCF-7/Adr + plasmin): 10 nM
- IC50 ([2]; read-out: IC50 MCF-7/Adr): 100 nM
- IC50 [7]: 5 nM
- Time until nearly all of the prodrug was converted to Doxaz ([8]; 15 μg/ml human plasmin): ≤ 23 min
- Prodrug converted to Doxaz ([8]; 4 min after addition of 15 μg/ml human plasmin): 20%
- Water solubility [9]: excellent water solubility

Compound: CCCCCOC(=O)N1COC2C(C)OC(OC3CC(O)(C(=O)CO)Cc4c(O)c5c(c(O)c43)C(=O)c3c(OC)cccc3C5=O)CC21 (centres unmarked) [Doxaz Pentyl Carbamate]
- Growth inhibition IC50, MCF-7, 3 h ([1]; 3 h drug treatment, crystal violet): >−6 log of the molar concentration
- Growth inhibition IC50, MCF-7, 24 h [1, 17]: −6.1 ± 0.03 log of the molar concentration
- Growth inhibition IC50, MCF-7/Adr, 24 h [2, 17]: −6.0 ± 0.09 log of the molar concentration
- Cell growth inhibition IC50, DU-145 [3, 17]: −6.0 ± 0.04 log of molar concentrations
- Growth inhibition IC50, SK-HEP-1, 3 h ([10]; 3 h drug treatment): >−6 log of the molar concentration
- Growth inhibition IC50, SK-HEP-1, 24 h ([10]; 24 h drug treatment): −6.7 ± 0.1 log of the molar concentration
- Growth inhibition IC50, Hep G2, 3 h ([11]; 3 h drug treatment): >−6 log of the molar concentration
- Growth inhibition IC50, Hep G2, 24 h ([11]; 24 h drug treatment): −6.5 ± 0.3 log of the molar concentration
- Growth inhibition IC50, H9c2(2-1), 24 h [12]: −6.6 ± 0.1 log of the molar concentration
- Growth inhibition IC50, Vero, 3 h ([13]; 3 h drug treatment): −5.4 ± 0.1 log of the molar concentration
- Growth inhibition IC50, Vero, 24 h ([13]; 24 h drug treatment): −5.3 ± 0.01 log of the molar concentration
- Cell growth inhibition IC50, SHP-77 [14]: −6.3 ± 0.3 log of molar concentrations
- Decrease of uptake by 10% fetal bovine serum ([15]; 10% fetal bovine serum, flow cytometry, 3 h): about 25%
- Uptake relative to Dox ([15]; flow cytometry over 3 h, with and without serum): taken up at a higher level and more rapidly than Dox
- Stability to hydrolysis in buffer [16]: stable to hydrolysis

From patent US8404650B2, “Methods of treating cancer with doxazolidine and prodrugs thereof” (priority 2005, dated 2013)
